Data taken from patent US10329302B2, “Bicyclic-fused heteroaryl or aryl compounds” (Pfizer Inc., priority 2014, dated 2019).

Experiments:
Female Lewis rats = test: In Vivo Rat Collagen-Induced Arthritis Model; details: for days on which hind paw swelling was significantly reduced (t-test, p<0.05 vs. vehicle): CIA Lewis rats, paw volume by plethysmograph
Experimental: In Vivo Rat Collagen-Induced Arthritis Model.
Efficacy of IRAK4 compounds of the present invention was also evaluated in a rat in vivo model of rheumatoid arthritis (M. Hegen, J. C. Keith, Jr, M. Collins, C. L. Nickerson-Nutter, Ann. Rheum. Dis. 2008, 67, 1505-1515). An exemplary protocol for this in vivo model follows.
Female Lewis rats, approximately 7 weeks old, were immunized with an emulsion of type II collagen (CII) and incomplete Freund's adjuvant (IFA) on day 0 and received a boost of CII/IFA on day 7. Hind paw volume increase was taken by plethysmograph. Animals were randomly enrolled into treatment groups based on the development of disease. Beginning on day 11 post immunization, rats were enrolled into random treatment groups based on an increase in a single hind paw volume compared to day 7 post immunization baseline measurements.
Ten rats were enrolled per treatment group with the exception of the naive control group, which contained two rats. Day 0 was designated as the first treatment day, and paw measurements are taken daily by plethysmograph. The rats were weighed on a daily basis.
IRAK4 inhibitors are efficacious in the Lewis rat model of collagen-induced arthritis.

[1] = system: R848-induced TNFα production by human peripheral blood mononuclear cells (PBMCs); test: R848 Induced TNFα in Human PBMC Assay; type: cell-based; details: Homo sapiens, PBMC, 3 h, read-out: R848-induced TNFa PBMC IC50 (nM)
[2] = biological target: human IRAK4 FL (Full Length) (Homo sapiens (Human), UniProt Q9NWZ3); test: IRAK4 Enzymatic DELFIA Assay, Protocol A; type: biochemical; details: human IRAK4 FL, 0.6 mM ATP (KM); read-out: IRAK4 DELFIA Protocol A IC50
[3] = biological target: human IRAK4 kinase domain (aa 154-460) (Homo sapiens (Human), UniProt Q9NWZ3); test: IRAK4 Enzymatic DELFIA Assay, Protocol B; type: biochemical; details: human IRAK4 kinase domain (aa 154-460), 0.6 mM ATP (KM); read-out: IRAK4 DELFIA Protocol B IC50
Excerpt: IRAK4 Enzymatic DELFIA Assay, Protocol B.

serum TNF = test: In Vivo Mouse LPS/D-Gal Challenge Model; details: oral
Experimental: In Vivo Mouse LPS/D-Gal Challenge Model.
Efficacy of IRAK4 compounds of the present invention was also evaluated in an in vivo mouse model of endotoxin induced (Lipopolysaccharide (LPS)) inflammation. See: S. Copeland, H. W. Warren, S. F. Lowry, S. E. Calvano, and D. Remick, Clin. Diagn. Lab. Immnol. 2005, 12(1), 60-67. An exemplary protocol for this in vivo model follows.
Female C57/BL6 mice, 8 to 10 weeks old, are orally administered either vehicle or formulated IRAK-4 compound 1 hour prior to the challenge. Vehicle or IRAK4 compound is administered by oral gavage at a volume of 10 mL/kg. One hour post oral delivery of vehicle or compound, the animals are challenged with an intraperitoneal injection (IP) of a solution containing 1 μg/mL LPS and 80 mg/mL D-gal. Each mouse is injected with […] of the solution, for a final challenge dose of 100 ng LPS and 8 mg D-gal. Ninety minutes post LPS/D-gal challenge, animals are euthanized and blood collected. Blood is allowed to clot at room temperature and serum is separated by centrifugation and stored at −80° C. for analysis. Serum TNF and IL-6 are measured by Meso Scale Discovery (MSD) multiplex platform.
The groups consisted of N=10 animals/group. Naïve animals and vehicle control groups were run with each study. Mean cytokine data was plotted and students T-test was performed to calculate significance (t-test, p<0.05 vs. vehicle) of IRAK4 treated group vs. vehicle treated group. Percent inhibition of cytokine induction was calculated for IRAK4 treated group vs. vehicle treated group.
Table 4 contains data from multiple studies with columns for Compound, Dose in mg/kg (mpk) and % inhibition of serum TNF. In cases where doses of certain compounds were repeated in multiple experiments, the average percent inhibition of TNF and standard deviation is shown in the table.

Sequence of human IRAK4 FL (Full Length) (Q9NWZ3 whole entry, the tested form may be a part): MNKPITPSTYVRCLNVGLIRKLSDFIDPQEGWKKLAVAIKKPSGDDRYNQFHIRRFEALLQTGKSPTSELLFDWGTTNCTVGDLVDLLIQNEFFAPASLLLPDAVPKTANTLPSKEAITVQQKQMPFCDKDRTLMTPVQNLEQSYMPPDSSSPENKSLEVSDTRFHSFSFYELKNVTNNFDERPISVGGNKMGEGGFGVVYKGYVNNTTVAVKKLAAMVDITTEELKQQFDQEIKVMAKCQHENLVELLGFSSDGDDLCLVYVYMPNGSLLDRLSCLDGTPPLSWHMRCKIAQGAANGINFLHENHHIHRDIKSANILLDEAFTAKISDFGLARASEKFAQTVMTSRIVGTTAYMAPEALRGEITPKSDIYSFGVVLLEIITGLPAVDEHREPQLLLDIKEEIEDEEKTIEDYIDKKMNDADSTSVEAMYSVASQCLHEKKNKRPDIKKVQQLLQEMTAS
Sequence of human IRAK4 kinase domain (aa 154-460) (Q9NWZ3 154-460): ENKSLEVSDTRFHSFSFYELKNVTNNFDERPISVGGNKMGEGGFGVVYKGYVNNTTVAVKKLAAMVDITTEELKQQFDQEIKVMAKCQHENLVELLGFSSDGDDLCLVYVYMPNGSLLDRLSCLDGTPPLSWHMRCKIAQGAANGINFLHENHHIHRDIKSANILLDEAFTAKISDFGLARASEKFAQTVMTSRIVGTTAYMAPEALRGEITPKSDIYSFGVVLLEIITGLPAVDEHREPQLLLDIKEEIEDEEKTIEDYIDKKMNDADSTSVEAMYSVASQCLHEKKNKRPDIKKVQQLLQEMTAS

Row | Structure (SMILES) | IC50 [1] | IC50 [2] | % inhib TNF (serum TNF; Dose 30 mpk) | % inhib TNF (serum TNF; Dose 100 mpk) | other results
1 | Cc1ccc(-n2nc(C(C)(C)C)cc2NC(=O)Nc2ccc(OCCN3CCOCC3)c3ccccc23)cc1 [BIRB796] | – | – | – | – | days on which hind paw swelling was significantly reduced (t-test, p<0.05 vs. vehicle) (Female Lewis rats; 30 mg/kg PO, QD, positive control (p38 inhibitor)): Day 1-Day 8
2 | CC(C)Oc1cc2c(OC[C@@H]3CCN3C(=O)CC#N)nccc2cc1C(N)=O [Example 73, 1-{[(2S)-1-(cyanoacetyl)azetidin-2-yl]methoxy}-7-(propan-2-yloxy)isoquinoline-6-carboxamide] | 1590 nM | 4360 nM | – | – | IC50 [3]: 1160 nM
3 | COc1cc2c(OC[C@@H]3C[C@](C)(F)C(=O)N3)cccc2cc1C(N)=O [Example 194, 5-{[(2S,4S)-4-fluoro-4-methyl-5-oxopyrrolidin-2-yl]methoxy}-3-methoxynaphthalene-2-carboxamide] | 5.2 nM | 1 nM | 76% | – | –
4 | COc1cc2c(OC[C@@H]3CCC(=O)N3)cccc2cc1C(N)=O [Example 173, 3-methoxy-5-{[(2S)-5-oxopyrrolidin-2-yl]methoxy}naphthalene-2-carboxamide] | – | – | 55% | 98% | –
5 | CC(C)Oc1cc2c(OC[C@@H]3CCC(=O)N3)nccc2cc1C(N)=O [Example 26, 1-{[(2S)-5-oxopyrrolidin-2-yl]methoxy}-7-(propan-2-yloxy)isoquinoline-6-carboxamide] | – | – | 41 (±17) % | 78 (±23) % | % inhib TNF (serum TNF; Dose 10 mpk): 27 (±19) %; hind paw swelling in CIA rats (Female Lewis rats; 10 mg/kg PO, BID): transiently significant reduction in hind paw swelling only on Day 5 and Day 6 post treatment; days on which hind paw swelling was significantly reduced (t-test, p<0.05 vs. vehicle) (Female Lewis rats; 30 mg/kg PO, BID, therapeutic treatment for 8 days): Day 2-Day 8; days on which hind paw swelling was significantly reduced (t-test, p<0.05 vs. vehicle) (Female Lewis rats; 100 mg/kg PO, BID, therapeutic treatment for 8 days): Day 1-Day 8 (end); hind paw swelling in CIA rats (Female Lewis rats; therapeutic treatment BID daily for 8 days, t-test p<0.05 vs. vehicle): reduced the hind paw swelling in CIA rats significantly
6 | COc1cc2c(OC[C@H]3NC(=O)[C@@H](F)[C@H]3C)nccc2cc1C(N)=O [Example 189, 1-{[(2S,3S,4S)-4-fluoro-3-methyl-5-oxopyrrolidin-2-yl]methoxy}-7-methoxyisoquinoline-6-carboxamide] | 12 nM | – | 40% | – | –
